Ends that are not written are not given here.
Columns and labels:
THP1 cells = assay: Chemokine dose-response, THP1 cell migration; format: cell-based, human; details: mean of biological replicates (2-7); for Mean pEC80: 3-parameter log-logistic fit, maximum fixed at 100%
Protocol: (§1) Cell lines were confirmed mycoplasma free by monthly testing using a MycoAlert^TM kit (LT07-118, Lonza) following the manufacturer’s instructions. THP1 cells: THP1 cells (ECACC 88081201, a human monocyte leukemia cell line[51]) were obtained from ECACC and were cultured in T175 flasks at 0.3-1 × 10^6 cells/mL in Roswell Park Memorial Institute (RPMI) 1640 medium (R0883, Sigma) with 10% FBS (F9665, Sigma) and 5mM L-glutamine (G7513, Sigma), 37 °C, 5% CO2. J:CXCR1 cells: The J:CXCR1 cell line was cultured in the same manner as THP1 cells at 0.15-1 × 10^6 cells per mL[37]. Activated T-cells: T-cells were isolated, activated and expanded as follows. Briefly, density gradient centrifugation using Lymphoprep^TM density gradient medium (07801, […] Technologies) and a SepMate^TM isolation tube (85450, […] Technologies) was used to isolate peripheral blood mononuclear cells from human leukocyte cones. Two rounds of purification using a human CD8 + T-cell isolation kit (480011, BioLegend) were used to isolate CD8 + T-cells from peripheral blood mononuclear cells. Activation of CD8 + T-cells was performed in ImmunoCult^TM-XF T-cell expansion medium (10982, […] Technologies) with an anti-CD3/anti-CD28 T-cell activator at 25 μl/ml (10991, […] Technologies), supplemented with 10 ng/ml recombinant human IL-2 (200-02, PeproTech) with 1% penicillin/streptomycin. T-cells were passaged every 2–3 days in TexMACS medium (130-097-196, Miltenyi Biotec), supplemented with 10 ng/ml human IL-2 (200-05-250, Peprotech) and incubated at 37 °C in 5% CO2. CD8 + T-cells were frozen at day 10-13 after initial activation, at 20×10^6 cell/ml in TexMACS medium supplemented with 10% DMSO (D2650, Sigma) in liquid nitrogen. Activated CD8^+ T-cells were recovered in TexMACs medium at 0.3 × 10^6 cell/ml and incubated at 37 °C in 5% CO2, 24 h prior to use. For buffy coat experiments a mixture of primary human monocytes, granulocytes and lymphocytes was isolated from human buffy coat. Briefly, RBCs were sedimented in HetaSep (07806, […] Technologies) with 1 mL of HetaSep per 5 mL of blood for 15 min at 37 °C. The buffy coat layer was collected from the top and washed in 50 ml MACS buffer (PBS (P4417, Sigma), 0.5% BSA (A7030, Sigma), 0.075% EDTA (E5134, Sigma), pH 7.2), by centrifugation at 2000 g for 10 min at room temperature. The pellet was resuspended in 10 mL of 1x RBC lysis solution (130-094-183, Miltenyi Biotec) and lysed for 10 min at room temperature. The cells were then washed in MACS buffer twice as above. The final pellet was resuspended in 1 mL of MACS buffer per 5 mL of initial blood volume and counted using cell size FSC-H/SSC-H parameters with gate settings previously defined by immunostaining (see below). The leukocytes were then resuspended in assay buffer for cell migration and used within 30 min of isolation.
(§2) Cell counts were determined using an ATTUNE NxT Flow Cytometer with Cytkick autosampler (ThermoFisher), based on cell size parameters FSC-H/SSC-H, with previously defined gate settings. FSC-H/SSC-H gate settings for primary white blood cells from buffy coats were determined using flow cytometry to establish the granulocyte, monocyte and lymphocyte populations (Supplementary Fig. 13). Briefly, cells were labelled with anti-CD3 (Miltenyi Biotec, 130-113-135) to identify the T cell population, anti-CD14 (Miltenyi Biotec, 130-110-578) to identify the monocyte population, and with anti-CD16 (Miltenyi Biotec, 130-113-951) to identify the granulocyte population. Negative control cells were labelled with anti-human IgG1 (Miltenyi Biotec, 130-113-434). All antibodies were allophycocyanin (APC) conjugated. 100,000 white blood cells were added to Eppendorf tubes and centrifuged at 300 g for 3 min. The supernatant was discarded, and the cells resuspended in 98 µL of MACS buffer (1× PBS, 2 mM EDTA and 0.5% BSA, sterile filtered). 2 µl of antibody was added to the cells. […]

[1] = lyophilised peptide, data provided by the manufacturer, ref GenScript, cited from earlier work; for Solubility, Water: C-terminal amide
activated T-cells (ATC) = assay: Chemokine dose-response, activated T-cell (ATC) migration; format: cell-based, human; details: mean of biological replicates (3-6)
Protocol: as §1, §2

[2] = system: panel of 22 biotinylated chemokines; assay: Saturation (NNK) mutagenesis phage-display selection against biotinylated chemokines, enrichment by NGS; format: binding, human; details: two-sided Dunnett's test; for log2E compared to parental HD2, CXnC chemokines: 7 CXnC chemokines; for log2E compared to parental HD2, CC chemokines: 15 CC chemokines; for log2E compared to parental HD2, all chemokines: three selection rounds, 22 chemokines
Source text: 81-mer mutant oligonucleotides replacing NNK at each of the 16 peptide encoding residues were designed with the sequence arms 5’-[…], and […]-3’ at respective ends to enable amplification and cloning. Oligonucleotides (Genscript) were individually amplified and cloned into plasmid prSTOP4Nsi (described in[37]). prSTOP4Nsi was amplified using primers (Sigma): […]
Oligonucleotides were amplified using primers (Sigma): oligo_fwd: 5’-[…] and oligo_rev2: 5’-[…]. The PCR products were cloned into prSTOP4Nsi plasmid using NEB Builder HiFi Assembly (E5520, NEB) following instructions of the manufacturer. The vector pool was used to transform electrocompetent ElectroMAX™ DH5α-E™ cells (11319019, Invitrogen). Plasmid DNA was harvested by MaxiPrep (GeneJet Plasmid Maxiprep Kit (K0491, Thermo Scientific)). DNA was transformed into SS320 phage display electrocompetent cells (60512, Lucigen), following the manufacturer’s protocol. Following electroporation, cells were resuspended in 950 μL recovery media and transferred to 50 mL Falcon tubes. 100 μL 10^11 CFU/mL M13KO7 helper phage (N0315S, NEB) was added, and tubes shaken at 37 °C, 220 RPM, 1 h. 1 mL recovery culture was added to 2YT medium containing +50ug/mL carbenicillin (C9231, Sigma) and 25ug/mL kanamycin (K1377, Sigma), and grown overnight at 37 °C, 220 RPM. Phage was precipitated from culture supernatant by adding 22.5 mL of supernatant to 4.5 mL 20% PEG 8000 (89510, Sigma)/2.5 M NaCl (S9625, Sigma), incubating on ice for 30 min, and centrifuging at 12857 g, 4 °C, 10 min. The phage pellet was resuspended in 1 mL of PBT (PBS (P4417, Sigma), BSA (A7030, Sigma) 0.20%, Tween 20 (P1379, Sigma) 0.05%). Undissolved particulate matter was removed by centrifugation at 15871 g, 4 °C, 10 min. Glycerol (G5516, Sigma, 10% final (v/v) was added, and aliquots stored at −80 °C. A schematic of phage-display library construction is provided in Supplementary Fig. 12.
Phage display screening was performed as described. Experiments were performed in 96-well plates (Greiner Bio-One, 655180). Biotinylated chemokines or complement C5A (1μg, Almac or Protein Foundry) were incubated overnight at 4 °C with shaking at 250 RPM with 5μl streptavidin-coated magnetic beads (Dynabeads™ M-280 Streptavidin, Invitrogen, 11205D) in 100 μl PBS. Chemokine-bound beads were blocked for two hours in 200μl blocking buffer (PBS (phosphate-buffered saline, Sigma, P4417) + 0.2% BSA (bovine serum albumin, Sigma, A7030) with shaking at 250 RPM. Phage library (100μL, 10^10 CFU/mL) was bound to blocked beads for two hours at room temperature with shaking at 250 RPM. Beads were washed 15 times with PT buffer (PBS + 0.05% Tween 20 (Sigma, P1379)) to remove unbound phage then transferred to a fresh plate. Beads were incubated with 100μL phage-resistant Omnimax E. coli (Invitrogen, A10469) at optical density (OD600) 0.6-0.8, shaken at 37 °C for 30 min. Following this 10 µL M13K07 helper phage (NEB, N0315S, final concentration 10^10 CFU/mL) was added and shaken at 37 °C for 45 min. Cells were transferred to 1 mL 2YT medium (at pH7, MP Biomedicals™, 113012031, supplemented with 150 µg/mL carbenicillin (Sigma, C9231) and 75 µg/mL kanamycin (Sigma, K1377) in a 96-deep well block with V-bottom (Corning, CLS3960) and grown with overnight shaking at 37 °C, 200 RPM. Plates were either centrifuged at 2000g (4 °C, 30 min) or transferred to screw cap tubes and pelleted by centrifugation at 4000 g and 4 °C for 15 min. 540 µL of supernatant was transferred to a new 96-deep well plate, 60 µL of 10×PBT (10×PBS + 2% BSA + 0.5% Tween 20) added and stored at 4 °C for subsequent rounds. Phage display was carried out for three rounds. A schematic of phage-display library screening is provided in Supplementary Fig. 12.
We amplified inserts from the input library and from the selected phage population directly from phage by PCR using primers: 5’-[…] and 5’-[…] (Life Technologies). […]

[3] = system: activated CD8+T-cells (ATC); assay: Activated T-cell (ATC) migration induced by individual chemokines, inhibition by peptide; format: cell-based, human; details: peptide 10 uM; chemokines at EC80; Dunnett's test
Protocol: as §1, §2

Substance: CCL2: human chemokine, Peprotech 300-04
- Mean pEC80 (THP1 cells): 8.35 [M]
- Mean pEC50 (THP1 cells): 8.73 [M]

Substance: DEDDWDAYAPIWCYFT-NH2 [HD2CM304]
- Solubility, Water [1]: Insoluble
- Solubility, DMSO [1]: Soluble
- Solubility, PBS [1]: Insoluble

Substance: CXCL10: human chemokine, Peprotech 300-12
- Mean pEC50 (activated T-cells (ATC)): 7.87 [M]
- Mean pEC80 (activated T-cells (ATC)): 7.50 [M]

Substance: DDDDWWDYAPLTCYFD [HD2CM526]
- Solubility, Water [1]: Insoluble
- Solubility, DMSO [1]: Soluble
- Solubility, PBS [1]: Insoluble

Substance: EEDDYDAYAPLTCYFT [HD2T6D, HD2 point mutant]
- log2E compared to parental HD2, CXnC chemokines [2]: significant improvement
- log2E compared to parental HD2, CC chemokines [2]: significant improvement
- log2E compared to parental HD2, all chemokines [2]: significantly improved

Substance: EEDDYTAYAPLTCYFT-NH2 [HD2]
- Solubility, Water [1]: Insoluble
- Solubility, DMSO [1]: Soluble
- Solubility, PBS [1]: Insoluble

Substance: CCL7: human chemokine, Peprotech 300-17
- Mean pEC80 (THP1 cells): 8.02 [M]
- Mean pEC50 (THP1 cells): 8.37 [M]

Substance: CCL5: human chemokine, Peprotech 300-06
- Mean pEC80 (THP1 cells): 8.36 [M]
- Mean pEC50 (THP1 cells): 8.65 [M]

Substance: CCL19: human chemokine, Peprotech 300-29B
- Mean pEC50 (activated T-cells (ATC)): 7.91 [M]
- Mean pEC80 (activated T-cells (ATC)): 7.64 [M]

Substance: DEDDWDDYAPITCYFT-NH2 [HD2CM307]
- Solubility, Water [1]: Insoluble
- Solubility, DMSO [1]: Insoluble
- Solubility, HCOOH [1]: Soluble
- Solubility, PBS [1]: Insoluble

Substance: CXCL11: human chemokine, Peprotech 300-46
- Mean pEC50 (activated T-cells (ATC)): 8.25 [M]
- Mean pEC80 (activated T-cells (ATC)): 7.99 [M]

Substance: EEDDYTAYAPITCYFT [HD2L11I, HD2 point mutant]
- log2E compared to parental HD2, CC chemokines [2]: significant improvement
- log2E compared to parental HD2, all chemokines [2]: significantly improved
- inhibition of CCL19, CCL21, CXCL9, and CXCL11-induced migration of ATCs compared to parental HD2 [3]: significant improvement in inhibition

Substance: TLETDTFYECPDAYAY [HD2SCR, reference compound]
- Solubility, Water [1]: Insoluble
- Solubility, DMSO [1]: Soluble
- Solubility, PBS [1]: Insoluble

Substance: CXCL9: human chemokine, Peprotech 300-26
- Mean pEC50 (activated T-cells (ATC)): 7.40 [M]
- Mean pEC80 (activated T-cells (ATC)): 7.22 [M]

Substance: CXCL12: human chemokine, Peprotech 300-28A
- Mean pEC50 (activated T-cells (ATC)): 8.93 [M]
- Mean pEC80 (activated T-cells (ATC)): 8.54 [M]

Substance: CCL3: human chemokine, Peprotech 300-08
- Mean pEC80 (THP1 cells): 9.31 [M]
- Mean pEC50 (THP1 cells): 9.64 [M]

Substance: EEDDYTDYAPLTCYFT [HD2A7D, HD2 point mutant]
- log2E compared to parental HD2, CXnC chemokines [2]: significant improvement
- log2E compared to parental HD2, all chemokines [2]: significantly improved

Reference: PMC11969024, “Development of chemokine network inhibitors using combinatorial saturation mutagenesis” (Communications Biology, 2025)
